Measured values taken from patent US20240336591A1, “ORGANIC PYRIDINE-PYRAZOLE COMPOUNDS AND THEIR USES” (priority 2021, published 2024).
Read-outs that look alike come from different tables or passages of the source.

How the values were obtained:
Human PDE10A2 [1] = target: T1, Human PDE10A2 (Homo sapiens (Human), UniProt Q9Y233); test: Cell based human PDE10A activity assay - cAMP HTRF assay in HEK 293 rhPDE10A2 cell line
Protocol: Semi log compound dilutions starting at a final concentration of 10 μM were dispensed into a white 384 well plate, alongside DMSO and an Inhibited control using the Tecan D300e digital dispenser. HEK 293 cells overexpressing recombinant human PDE10A2 were seeded on top of the compounds at 2500 cells/well in a volume 5 μL/well. The plate was incubated at room temperature for 60 minutes. To induce endogenous cAMP, 5 μL/well of Forskolin at a final assay concentration of 10 μM was added to the plate. The plate was incubated at room temperature for a further 45 minutes. cAMP HTRF detection reagents were added, and the plate was incubated for 60 minutes at room temperature. […] Data was analysed using a 4-parameter fit.

Human PDE10A2 [2] = target: T1, Human PDE10A2; test: Biochemical human PDE10A activity assay - PDE10A2 Phosphate Sensor Assay; conditions: cGMP 3 μM substrate, PDE10A2 0.25 nM
Protocol: Biochemical Human PDE10A Activity Assay—PDE10A2 Phosphate Sensor Assay
Semi Log compound dilutions starting at a final concentration of 50 μM were dispensed into a black 384 well plate alongside, DMSO and an Inhibited control using the Echo Acoustic dispenser. […] Data was analysed using a 4-parameter fit.

[3] = Forskolin 10 μM, read-out: cAMP HTRF Assay in HEK 293 rhPDE10A2 cell line (pIC50) (converted)

T1 sequence (Q9Y233 267-1055): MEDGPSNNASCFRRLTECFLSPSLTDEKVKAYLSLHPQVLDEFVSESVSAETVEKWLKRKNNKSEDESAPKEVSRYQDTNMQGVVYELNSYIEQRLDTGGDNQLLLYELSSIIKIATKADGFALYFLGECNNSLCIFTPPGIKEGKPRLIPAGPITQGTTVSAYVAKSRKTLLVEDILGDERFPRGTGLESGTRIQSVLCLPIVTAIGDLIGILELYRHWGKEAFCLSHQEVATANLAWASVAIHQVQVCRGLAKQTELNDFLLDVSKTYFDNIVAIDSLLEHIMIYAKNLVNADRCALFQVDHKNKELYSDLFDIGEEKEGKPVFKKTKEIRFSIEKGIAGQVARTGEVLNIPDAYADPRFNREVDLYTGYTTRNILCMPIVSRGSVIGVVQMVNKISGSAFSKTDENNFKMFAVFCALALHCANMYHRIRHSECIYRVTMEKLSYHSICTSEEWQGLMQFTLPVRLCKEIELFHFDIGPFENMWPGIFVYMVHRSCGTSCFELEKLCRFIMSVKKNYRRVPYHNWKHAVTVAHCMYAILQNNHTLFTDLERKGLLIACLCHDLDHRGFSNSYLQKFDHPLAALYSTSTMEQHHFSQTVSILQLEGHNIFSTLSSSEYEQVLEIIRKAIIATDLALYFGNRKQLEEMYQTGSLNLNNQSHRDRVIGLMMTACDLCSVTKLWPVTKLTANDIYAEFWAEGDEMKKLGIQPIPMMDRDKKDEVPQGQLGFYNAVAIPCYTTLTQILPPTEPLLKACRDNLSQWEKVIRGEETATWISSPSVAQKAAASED

| SMILES | IC50 (Human PDE10A2 [1]; [3]) [nM] | PDE10A2 Phosphate Sensor Enzyme Assay (pIC50) (Human PDE10A2 [2]) | IC50 (Human PDE10A2 [1]) [nM] |
| --- | --- | --- | --- |
| Cn1ncc(-c2ccncc2)c1-c1ccc(OCc2cc(C(=O)O)c3ccccc3n2)cc1 [Example 1, 2-[[4-[2-Methyl-4-(4-pyridyl)pyrazol-3-yl]phenoxy]methyl]quinoline-4-carboxylic acid] | 1.95 | 9.43 |  |
| Cn1ncc(-c2ccncc2)c1-c1ccc(OCc2nc3ccccc3cc2C(=O)O)cc1 [Example 2, 2-[[4-[2-Methyl-4-(4-pyridyl)pyrazol-3-yl]phenoxy]methyl]quinoline-3-carboxylic acid] | 0.117 | 9.69 |  |
| CS(=O)(=O)n1cc(-c2ccncc2)c(-c2ccc(OCc3ccc4ccccc4n3)cc2)n1 [Example 6, 2-[[4-[1-Methylsulfonyl-4-(4-pyridyl)pyrazol-3-yl]phenoxy]methyl]quinoline] | 64.6 | 8.36 |  |
| Cc1cccc2nc(COc3ccc(-c4nn(C)cc4-c4ccncc4)cc3)c(C(=O)N=S(C)(C)=O)cc12 [Example 7, N-[Dimethyl(oxo)-λ6-sulfanylidene]-5-methyl-2-[[4-[1-methyl-4-(4-pyridyl)pyrazol-3-yl]phenoxy]methyl]quinoline-3-carboxamide] | 1.48 | 9.65 |  |
| CS(C)(=O)=NC(=O)c1cc(COc2ccc(-c3nn(CC(F)(F)F)cc3-c3ccncc3)cc2)nc2ccccc12 [Example 8, N-[Dimethyl(oxo)-λ6-sulfanylidene]-2-[[4-[4-(4-pyridyl)-1-(2,2,2-trifluoroethyl)pyrazol-3-yl]phenoxy]methyl]quinoline-4-carboxamide] | 0.38 | 10.2 |  |
| CS(C)(=O)=NC(=O)c1cc(COc2ccc(-c3n[nH]cc3-c3ccncc3)cc2)nc2ccccc12 [Example 12, N-[Dimethyl(oxo)-λ6-sulfanylidene]-2-[[4-[4-(4-pyridyl)-1H-pyrazol-3-yl]phenoxy]methyl]quinoline-4-carboxamide] | 5.01 | 9.84 |  |
| Cn1cc(-c2ccncc2)c(-c2ccc(OCc3nc4ccccc4cc3C(=O)N=S3(=O)CCCC3)cc2)n1 [Example 13, 2-[[4-[1-Methyl-4-(4-pyridyl)pyrazol-3-yl]phenoxy]methyl]-N-(1-oxothiolan-1-ylidene)quinoline-3-carboxamide] | 0.977 | 9.86 |  |
| Cn1cc(-c2ccncc2)c(-c2ccc(OCc3nc4ccccc4cc3C(=O)N=S(C)(=O)C3CC3)cc2)n1 (centres unmarked) [Example 14, N-(Cyclopropyl-methyl-oxo-λ6-sulfanylidene)-2-[[4-[1-methyl-4-(4-pyridyl)pyrazol-3-yl]phenoxy]methyl]quinoline-3-carboxamide] | 0.676 | 10.0 |  |
| CN(C(=O)c1cc(COc2ccc(-c3nn(C)cc3-c3ccncc3)cc2)nc2ccccc12)S(C)(=O)=O [Example 16, N-Methyl-2-[[4-[1-methyl-4-(4-pyridyl)pyrazol-3-yl]phenoxy]methyl]-N-methylsulfonyl-quinoline-4-carboxamide] | 0.603 | 9.87 |  |
| Cn1cc(-c2ccncc2)c(-c2ccc(OCc3nc4cc(F)ccc4cc3C(=O)N=S(C)(C)=O)cc2)n1 [Example 21, N-[Dimethyl(oxo)-λ6-sulfanylidene]-7-fluoro-2-[[4-[1-methyl-4-(4-pyridyl)pyrazol-3-yl]phenoxy]methyl]quinoline-3-carboxamide] | 550 | 8.32 |  |
| Cn1cc(-c2ccncc2)c(-c2ccc(OCc3nc4ccc(F)cc4cc3C(=O)N=S(C)(C)=O)cc2)n1 [Example 22, N-[Dimethyl(oxo)-λ6-sulfanylidene]-6-fluoro-2-[[4-[1-methyl-4-(4-pyridyl)pyrazol-3-yl]phenoxy]methyl]quinoline-3-carboxamide] | 17.4 | 9.49 |  |
| Cn1cc(-c2ccncc2)c(-c2ccc(OCc3nc4cccc(F)c4cc3C(=O)N=S(C)(C)=O)cc2)n1 [Example 23, N-[Dimethyl(oxo)-λ6-sulfanylidene]-5-fluoro-2-[[4-[1-methyl-4-(4-pyridyl)pyrazol-3-yl]phenoxy]methyl]quinoline-3-carboxamide] | 3.98 | 9.59 |  |
| Cc1ccc2nc(COc3ccc(-c4nn(C)cc4-c4ccncc4)cc3)c(C(=O)N=S(C)(C)=O)cc2c1 [Example 24, N-[Dimethyl(oxo)-λ6-sulfanylidene]-6-methyl-2-[[4-[1-methyl-4-(4-pyridyl)pyrazol-3-yl]phenoxy]methyl]quinoline-3-carboxamide] | 331 |  |  |
| Cn1cc(-c2ccncc2)c(-c2ccc(OCc3cc(C(=O)N=S(C)(C)=O)c4cc(F)ccc4n3)cc2)n1 [Example 25, N-[Dimethyl(oxo)-λ6-sulfanylidene]-6-fluoro-2-[[4-[1-methyl-4-(4-pyridyl)pyrazol-3-yl]phenoxy]methyl]quinoline-4-carboxamide] | 3.63 | 9.41 |  |
| Cn1cc(-c2ccncc2)c(-c2ccc(OCc3cc(C(=O)N=S(C)(C)=O)c4c(Cl)cccc4n3)cc2)n1 [Example 26, 5-Chloro-N-[Dimethyl(oxo)-λ6-sulfanylidene]-2-[[4-[1-methyl-4-(4-pyridyl)pyrazol-3-yl]phenoxy]methyl]quinoline-4-carboxamide] | 42.7 | 9.13 |  |
| CCn1cc(-c2ccncc2)c(-c2ccc(OCc3cc(C(=O)N=S(C)(C)=O)c4ccccc4n3)cc2)n1 [Example 27, N-[Dimethyl(oxo)-λ6-sulfanylidene]-2-[[4-[1-ethyl-4-(4-pyridyl)pyrazol-3-yl]phenoxy]methyl]quinoline-4-carboxamide] | 0.537 | 10.2 |  |
| CS(C)(=O)=NC(=O)c1cc(COc2ccc(-c3nn(C4CC4)cc3-c3ccncc3)cc2)nc2ccccc12 [Example 28, 2-[[4-[1-Cyclopropyl-4-(4-pyridyl)pyrazol-3-yl]phenoxy]methyl]-N-[dimethyl(oxo)-λ6-sulfanylidene]quinoline-4-carboxamide] | 2.75 | 9.42 |  |
| O=C(O)c1cc2ccccc2nc1COc1ccc(-c2n[nH]cc2-c2ccncc2)cc1 [Example 29, 2-[[4-[4-(4-Pyridyl)-1H-pyrazol-3-yl]phenoxy]methyl]quinoline-3-carboxylic acid] | 0.347 | 10 |  |
| O=C(O)c1cc(COc2ccc(-c3n[nH]cc3-c3ccncc3)cc2)nc2ccccc12 [Example 30, 2-[[4-[4-(4-Pyridyl)-1H-pyrazol-3-yl]phenoxy]methyl]quinoline-4-carboxylic acid] | 0.138 | 10.2 |  |
| CS(C)(=O)=NC(=O)c1cc2ccccc2nc1COc1ccc(-c2n[nH]cc2-c2ccncc2)cc1 [Example 31, N-[Dimethyl(oxo)-λ6-sulfanylidene]-2-[[4-[4-(4-pyridyl)-1H-pyrazol-3-yl]phenoxy]methyl]quinoline-3-carboxamide] |  | 10 | 13.8 |
| CS(C)(=O)=Nc1cc(COc2ccc(-c3n[nH]cc3-c3ccncc3)cc2)nc2ccccc12 [Example 32, Dimethyl-oxo-[[2-[[4-[4-(4-pyridyl)-1H-pyrazol-3-yl]phenoxy]methyl]-4-quinolyl]imino]-λ6-sulfane] | 46.8 | 10.3 |  |
